Reference: article PMC9506420, “Biological Evaluation of 3-Azaspiro[Bicyclo[3.1.0]Hexane-2,5′-Pyrimidines] as Potential Antitumor Agents” (International Journal of Molecular Sciences, 2022)

Experiments:
[1] = test system: HeLa cells; assay: Scratch test of cell motility, HeLa; type: cell-based, human; conditions: 10 μg/mL, 24 h, serum-free, nontreated 29.3 ± 2.0%
Experimental: To evaluate the ability of tested adducts to inhibit cell-motility-associated metastasis, a scratch test was performed on the HeLa, CT26, and Vero cell lines. The results are shown in Figure 11, Figure 12 and Figure 13. Nontreated HeLa cells filled the scratched strip at 29.3 ± 2.0%, while cells filled 10.4 ± 1.8%, 11.2 ± 1.1%, 20.2 ± 2.9%, 4.8 ± 1.9%, and 11.7 ± 1.8% of the scratched strip under treatment with adducts 4d, 4e, 4f, 4h, and 4i, respectively (Figure 11).
Cells were seeded onto Petri dishes at a density of 5 × 10^5 cells per dish and grown to confluency. Scratch wounds were made with a 200 μL pipette tip, after which detached cells were removed by washing with phosphate-buffered saline. In order to inhibit cell proliferation, culture media was replaced to serum-free DMEM. Compounds 4d, 4e, 4f, […] were added to the cultures at a dose of 10 μg/mL and incubated for 24 h. After that, the cells were stained with Hoechst 33,342 (Thermo Fisher Scientific, Waltham, MA, USA), by adding 2 μL of 1 mg/mL stock solution to 2 mL of medium and DIBAC4 (3) (Thermo Fisher Scientific, Waltham, MA, USA) at the same dose. Images were captured using confocal microscope (Axio Observer Z1, Carl Zeiss MicroImaging GmbH, Jena, Germany). The percentage of wound closure in five randomly chosen fields was calculated with NIH ImageJ software.

[2] = test system: HeLa cells; assay: Actin cytoskeleton staining (rhodamine-phalloidin, confocal microscopy), HeLa; type: cell-based, human; conditions: 5 μg/mL, 24 h
Experimental: (§1) Therefore, in the current study, the actin cytoskeleton structure of HeLa, CT26, and Vero cells was analyzed, after the impact of compounds 4a–i, by the presence of filopodia-like protrusions and the availability of stress fibers (Figure 14, Figure 15 and Figure 16). […] HeLa cells were more sensitive to the action of tested products, compared to CT26 and Vero cells.
(§2) Cells were seeded onto Petri dishes with cover slips at a density of 2 × 10^5 cells per dish and incubated for 24 h. After that, cells were treated with compounds 4d, 4e, 4f, 4h, and 4i (5 μg/mL) for 24 h. The medium was removed, and cells were fixed with 4% paraformaldehyde (Sigma-Aldrich, St. Louis, MO, USA), washed three times with PBS, and permeabilized with 0.3% Triton-X100 (Sigma-Aldrich, St. Louis, MO, USA). The cells were rinsed three times with PBS. Actin filaments (microfilaments) were stained at 37 °C for 15 min with rhodamine-phalloidin (Invitrogen, Carlsbad, CA, USA). The samples were rinsed three times with PBS, followed by embedding in Fluoroshield medium (Sigma-Aldrich, St. Louis, MO, USA). Cells were imaged using an Axio Observer Z1 confocal microscope (Carl Zeiss MicroImaging GmbH, Jena, Germany). In each experiment, at least 30 cells were imaged. Images were analyzed by a pathologist, blinded to the treatment mode used for each group, using ImageJ software.

[3] = test system: CT26 cells; assay: Actin cytoskeleton staining (rhodamine-phalloidin, confocal microscopy), CT26; type: cell-based, mouse; conditions: CT26, 5 μg/mL, 24 h; for percentage of cells with normal stress fibers (C): control 64%
Experimental: as §1, §2

Structure (SMILES)	scratched strip filled by cells [1]	percentage of cells with normal stress fibers (C) ([2]; control 80%)	percentage of cells with filopodia-like deformations (A) ([2]; control 91%)	percentage of cells with filopodia-like deformations (A) ([3]; control 43%)	percentage of cells with normal stress fibers (C) [3]
CCC[C@@H]1NC2(C(=O)NC(=O)NC2=O)[C@]2(c3ccccc3)[C@@H](c3ccccc3)[C@]12c1ccccc1 [Compound 4d]	10.4 ± 1.8%				
CC(C)C[C@@H]1NC2(C(=O)NC(=O)NC2=O)[C@]2(c3ccccc3)[C@@H](c3ccccc3)[C@]12c1ccccc1 [Compound 4f]	20.2 ± 2.9%	10%	35%		
CCCC[C@@H]1NC2(C(=O)NC(=O)NC2=O)[C@]2(c3ccccc3)[C@@H](c3ccccc3)[C@]12c1ccccc1 [Compound 4e]	11.2 ± 1.1%				
O=C1NC(=O)C2(N[C@@H](c3ccccc3)[C@@]3(c4ccccc4)[C@H](c4ccccc4)[C@@]23c2ccccc2)C(=O)N1 [Compound 4i]	11.7 ± 1.8%			38%	38%
CSCC[C@@H]1NC2(C(=O)NC(=O)NC2=O)[C@]2(c3ccccc3)[C@@H](c3ccccc3)[C@]12c1ccccc1 [Compound 4h]	4.8 ± 1.9%				36%
